# Laboratory results: article PMC5356695, “A phase 1 study of oral ridaforolimus in pediatric patients with advanced solid tumors” (Oncotarget, 2016)
# Like-named read-outs stand apart in the source and are kept apart here.
# System: pediatric patients with advanced solid tumors
# Details: for Leukopenia (treatment-related AE): laboratory values only
# Experimental: This phase 1, multicenter, open-label study was conducted at a total of 8 study sites (3 study sites in the United States and 5 Innovative Therapies for Children with Cancer [ITCC] Consortium centers [2 in the United Kingdom and 3 in France]) between January 31, 2012, and the data cutoff, January 14, 2014 (ClinicalTrials.gov identifier NCT01431534; European Clinical Trials Database [EudraCT] number 2011-000729-55). An enteric-coated tablet formulation of ridaforolimus was orally administered for 5 consecutive days and not administered for 2 consecutive days per week in 28-day cycles until progression, unacceptable toxicity, or consent withdrawal. […] Dose escalation was conducted by using a modified toxicity probability intervals method that targeted a 30% DLT rate and started at 22 mg/m^2 (the equivalent of the adult RP2D [27], a 40-mg dose in adults with a BSA of 1.8 m^2). […] Dosing was adjusted based on BSA and rounded to the nearest 10-mg tablet. Patients were to be treated at sequentially rising dose levels until a preliminary MTD was identified.
# Toxicity was graded according to the National Cancer Institute Common Terminology Criteria for Adverse Events, version 4.0 [42]. Safety data were reported for all patients who received at least 1 dose of the study drug. […] Once the RP2D of ridaforolimus was defined, an expansion cohort to be treated at the RP2D was planned to obtain additional safety, tolerability, and pharmacokinetic data.
smiles,measurement,setting,value
CO[C@H]1C[C@@H]2CC[C@@H](C)[C@@](O)(O2)C(=O)C(=O)N2CCCC[C@H]2C(=O)O[C@H]([C@H](C)C[C@@H]2CC[C@@H](OP(C)(C)=O)[C@H](OC)C2)CC(=O)[C@H](C)/C=C(\C)[C@@H](O)[C@@H](OC)C(=O)[C@H](C)C[C@H](C)/C=C/C=C/C=C/1C [ridaforolimus],Increased alkaline phosphatase (treatment-related AE),"33 mg/m^2 n = 13, grades 3–4",0 n (%)
same,Increased bilirubin (treatment-related AE),"33 mg/m^2 n = 13, grades 3–4",0 n (%)
same,Increased γ-glutamyltransferase (treatment-related AE),"33 mg/m^2 n = 13, grades 3–4",1 (8) n (%)
same,Lymphopenia (treatment-related AE),"33 mg/m^2 n = 13, grades 3–4",1 (8) n (%)
same,Nausea (treatment-related AE),"33 mg/m^2 n = 13, grades 3–4",0 n (%)
same,Neutropenia (treatment-related AE),"33 mg/m^2 n = 13, grades 3–4",1 (8) n (%)
same,Oral herpes (treatment-related AE),"33 mg/m^2 n = 13, grades 3–4",0 n (%)
same,Patients with ≥1 treatment-related adverse event,"33 mg/m^2 n = 13, grades 3–4",5 (38) n (%)
same,Photophobia (treatment-related AE),"33 mg/m^2 n = 13, grades 3–4",0 n (%)
same,Rash (treatment-related AE),"33 mg/m^2 n = 13, grades 3–4",0 n (%)
same,Stomatitis (treatment-related AE),"33 mg/m^2 n = 13, grades 3–4",0 n (%)
same,Thrombocytopenia (treatment-related AE),"33 mg/m^2 n = 13, grades 3–4",1 (8) n (%)
same,Vomiting (treatment-related AE),"33 mg/m^2 n = 13, grades 3–4",0 n (%)
same,Leukopenia (treatment-related AE),"33 mg/m^2 n = 13, grades 3–4",0 n (%)
same,Anemia (treatment-related AE),"Total N = 20, any grade",8 (40) n (%)
same,Decreased appetite (treatment-related AE),"Total N = 20, any grade",2 (10) n (%)
same,Decreased weight (treatment-related AE),"Total N = 20, any grade",2 (10) n (%)
same,Diarrhea (treatment-related AE),"Total N = 20, any grade",2 (10) n (%)
same,Dry mouth (treatment-related AE),"Total N = 20, any grade",2 (10) n (%)
same,Dysgeusia (treatment-related AE),"Total N = 20, any grade",3 (15) n (%)
same,Epistaxis (treatment-related AE),"Total N = 20, any grade",2 (10) n (%)
same,Fatigue (treatment-related AE),"Total N = 20, any grade",9 (45) n (%)
same,Headache (treatment-related AE),"Total N = 20, any grade",3 (15) n (%)
same,Hypercholesterolemia (treatment-related AE),"Total N = 20, any grade",9 (45) n (%)
same,Hyperglycemia (treatment-related AE),"Total N = 20, any grade",2 (10) n (%)
same,Hypertriglyceridemia (treatment-related AE),"Total N = 20, any grade",10 (50) n (%)
same,Hypocalcemia (treatment-related AE),"Total N = 20, any grade",2 (10) n (%)
same,Hypokalemia (treatment-related AE),"Total N = 20, any grade",2 (10) n (%)
same,Hypophosphatemia (treatment-related AE),"Total N = 20, any grade",5 (25) n (%)
same,Increased ALT (treatment-related AE),"Total N = 20, any grade",10 (50) n (%)
same,Increased AST (treatment-related AE),"Total N = 20, any grade",8 (40) n (%)
same,Increased alkaline phosphatase (treatment-related AE),"Total N = 20, any grade",2 (10) n (%)
same,Increased bilirubin (treatment-related AE),"Total N = 20, any grade",2 (10) n (%)
same,Increased γ-glutamyltransferase (treatment-related AE),"Total N = 20, any grade",5 (25) n (%)
same,Lymphopenia (treatment-related AE),"Total N = 20, any grade",2 (10) n (%)
same,Nausea (treatment-related AE),"Total N = 20, any grade",6 (30) n (%)
same,Neutropenia (treatment-related AE),"Total N = 20, any grade",6 (30) n (%)
same,Oral herpes (treatment-related AE),"Total N = 20, any grade",2 (10) n (%)
same,Patients with ≥1 treatment-related adverse event,"Total N = 20, any grade",19 (95) n (%)
same,Photophobia (treatment-related AE),"Total N = 20, any grade",3 (15) n (%)
same,Rash (treatment-related AE),"Total N = 20, any grade",2 (10) n (%)
same,Stomatitis (treatment-related AE),"Total N = 20, any grade",15 (75) n (%)
same,Thrombocytopenia (treatment-related AE),"Total N = 20, any grade",13 (65) n (%)
same,Vomiting (treatment-related AE),"Total N = 20, any grade",3 (15) n (%)
same,Leukopenia (treatment-related AE),"Total N = 20, any grade",7 (35) n (%)
same,Anemia (treatment-related AE),"Total N = 20, grades 3–4",0 n (%)
same,Decreased appetite (treatment-related AE),"Total N = 20, grades 3–4",0 n (%)
same,Decreased weight (treatment-related AE),"Total N = 20, grades 3–4",0 n (%)
same,Diarrhea (treatment-related AE),"Total N = 20, grades 3–4",0 n (%)
same,Dry mouth (treatment-related AE),"Total N = 20, grades 3–4",0 n (%)
same,Dysgeusia (treatment-related AE),"Total N = 20, grades 3–4",0 n (%)
same,Epistaxis (treatment-related AE),"Total N = 20, grades 3–4",0 n (%)
same,Fatigue (treatment-related AE),"Total N = 20, grades 3–4",0 n (%)
same,Headache (treatment-related AE),"Total N = 20, grades 3–4",0 n (%)
same,Hypercholesterolemia (treatment-related AE),"Total N = 20, grades 3–4",1 (5) n (%)
same,Hyperglycemia (treatment-related AE),"Total N = 20, grades 3–4",0 n (%)
same,Hypertriglyceridemia (treatment-related AE),"Total N = 20, grades 3–4",1 (5) n (%)
same,Hypocalcemia (treatment-related AE),"Total N = 20, grades 3–4",0 n (%)
same,Hypokalemia (treatment-related AE),"Total N = 20, grades 3–4",0 n (%)
same,Hypophosphatemia (treatment-related AE),"Total N = 20, grades 3–4",1 (5) n (%)
same,Increased ALT (treatment-related AE),"Total N = 20, grades 3–4",5 (25) n (%)
same,Increased AST (treatment-related AE),"Total N = 20, grades 3–4",1 (5) n (%)
same,Increased alkaline phosphatase (treatment-related AE),"Total N = 20, grades 3–4",0 n (%)
same,Increased bilirubin (treatment-related AE),"Total N = 20, grades 3–4",0 n (%)
same,Increased γ-glutamyltransferase (treatment-related AE),"Total N = 20, grades 3–4",1 (5) n (%)
same,Lymphopenia (treatment-related AE),"Total N = 20, grades 3–4",1 (5) n (%)
same,Nausea (treatment-related AE),"Total N = 20, grades 3–4",0 n (%)
same,Neutropenia (treatment-related AE),"Total N = 20, grades 3–4",1 (5) n (%)
same,Oral herpes (treatment-related AE),"Total N = 20, grades 3–4",1 (5) n (%)
same,Patients with ≥1 treatment-related adverse event,"Total N = 20, grades 3–4",9 (45) n (%)
same,Photophobia (treatment-related AE),"Total N = 20, grades 3–4",0 n (%)
same,Rash (treatment-related AE),"Total N = 20, grades 3–4",0 n (%)
same,Stomatitis (treatment-related AE),"Total N = 20, grades 3–4",0 n (%)
same,Thrombocytopenia (treatment-related AE),"Total N = 20, grades 3–4",2 (10) n (%)
same,Vomiting (treatment-related AE),"Total N = 20, grades 3–4",0 n (%)
same,Leukopenia (treatment-related AE),"Total N = 20, grades 3–4",0 n (%)
same,"Anemia, treatment-related","all patients, N = 20",40%
same,"Fatigue, treatment-related","all patients, N = 20",45%
same,"Hypercholesterolemia, treatment-related","all patients, N = 20",45%
same,"Hypertriglyceridemia, treatment-related","all patients, N = 20",50%
same,"Increased ALT, treatment-related","all patients, N = 20",50%
same,"Increased aspartate aminotransferase (AST), treatment-related","all patients, N = 20",40%
same,"Leukopenia, treatment-related","all patients, N = 20",35%
same,"Nausea, treatment-related","all patients, N = 20",30%
same,"Neutropenia, treatment-related","all patients, N = 20",30%
same,Patients with at least 1 treatment-related adverse event,"all patients, N = 20",95%
same,Serious adverse events related to study treatment,"all patients, N = 20",15%
same,"Stomatitis, treatment-related","all patients, N = 20",75%
same,"Thrombocytopenia, treatment-related","all patients, N = 20",65%
same,Treatment-related grade 3/4 increased ALT,"all patients, N = 20",25%
same,Treatment-related grade 3/4 thrombocytopenia,"all patients, N = 20",10%
same,Treatment-related grade 3/4 adverse events,"all patients, N = 20 (9 patients)",45%
same,Serious adverse events,"all patients, N = 20 (12 patients), most disease related",60%
same,"Time to DLT onset, days","dose level 3, 33 mg/m^2, cycle 1",22 (cycle 1) days
same,Recommended phase 2 dose (RP2D) for oral ridaforolimus in children,once daily 5 days/week,33 mg/m^2
same,Deaths / grade 5 adverse events related to ridaforolimus,three deaths during the study,No deaths were considered related to ridaforolimus
